Where a SMILES comes first, the peptide text is derived from it. The star is where a group is joined. Cbz = O=C(OCc1ccccc1)*
What was measured:
proteasome = assay: Role of the proteasome in ARR stability, immunoblot of protoplasts; assay type: cell-based, Arabidopsis; conditions: 10 μM MG132, 3 hours
ARR7 and ARR15 = conditions: wild-type plants, one hour treatment with 100 nM t-zeatin, qRT-PCR
Experimental: (§1) Cytokinin Growth and Molecular Response Analyses. Hypocotyl and root growth analyses were performed according to known methods (Argyros, et al. (2008) Plant Cell 20(8):2102-2116) and hypocotyl and root lengths were measured using ImageJ software (version 1.32; National Institutes of Health). Root meristem size was determined via established methods (Perilli & Sabatini (2010) Methods Mol. Biol. 655:177-187). The apical meristem was visualized by bright field microscopy, with tissue sectioning, fixation, and staining performed according to known methods (Chiang, et al. (2012) Plant Physiol. 160(1):332-348). Total RNA isolation, cDNA production, and quantitative RT-PCR (qRT-PCR) were performed via established methods (Argyros, et al. (2008) supra). Transcript abundances were calculated using the comparative CT method, with 13-TUB3 (At5g62700) as the normalized control.
(§2) Plant Growth Conditions and Cytokinin Treatment. Seeds were surface-sterilized and cold-treated for 3 days in the dark at 4° C. to ensure uniform germination before being moved into the light. For molecular and physiological assays, seedlings were grown on medium containing 1× Murashige and Skoog (MS) salts with vitamins (Research Products International Corp.), 1% sucrose, and 0.8% phytoagar (Research Products International Corp.) at 22° C. under continuous white light (50 μE·m^−2·s^−1) unless specified otherwise. […]

[1] = test system: dark-grown, wild-type seedlings; conditions: increasing concentrations of t-zeatin
Experimental: as §1, §2

Row | Compound | protein level of ARR1 (proteasome; protoplasts from ARR1-HA overexpression line) | protein level of ARR12 (proteasome; protoplasts from ARR12-Myc overexpression line) | induction of ARR7 and ARR15 expression (ARR7 and ARR15) | hypocotyl elongation [1]
1 | CC(C)C[C@@H](C=O)NC(=O)[C@H](CC(C)C)NC(=O)[C@H](CC(C)C)NC(=O)OCc1ccccc1 [MG132] (Cbz-Leu-Leu-Leu-aldehyde) | increased | increased |  | 
2 | C/C(=C\CNc1ncnc2[nH]cnc12)CO [t-zeatin, 6-(4-hydroxy-3methylbut-trans-2-enylamino) purine] |  |  | two- to four-fold | inhibition of hypocotyl elongation
